For data set [1], the system named is Vero cells. Kind of data set: Toxicity assay on Vero cells. It counts as cell-based, African Green Monkey.
Data set [2] concerns H460 cells. Kind of data set: Cytotoxicity on H460 cells, ApoTox-Glo Triplex assay. It counts as cell-based.
Data set [3] concerns Plasmodium falciparum, strain 3D7. Conditions: 2% spinosad dispersion in DMSO.
In data set [4] the test system is leishmania donovati.
The subject of data set [5] is Herpes Simplex Virus 1 McIntyre (HSV1). Kind of data set: IC50 assay against HSV1 in Vero cells (cytopathic effect). Conditions: 100 infectious units of Herpes Simplex 1, up to 5 days. For orientation: Cytopathic effects are the visible damage that an infection or toxin causes in cultured cells.
Description: We performed an IC50 assay, in which the amount of virus in the quadruplicate assay wells is identical, and the concentration of drug varies over a range of ten concentrations. This assay was performed in a 48 well tissue culture dish, each well containing the appropriate cell line at approximately 90% confluence. […] Approximately 100 infectious units per well were added to each test well. Cells, HSV1 virus and drug are incubated for up to 5 days and cytopathic effect is determined.

For Spinosad, in data set [1], the “state of treated cell monolayer” value is given as “healthy” and the “toxicity against Vero cells” value is “no toxicity”. In data set [2] (20 μg/mL spinosad, 3 hours of treatment), the cytotoxicity result is listed as “no cytotoxicity”. Further, the “concentration above which cell viability decreases” value in data set [2] (three hours of treatment) is listed as “higher than 20 μg/mL”. Also, in data set [3], the IC50 result is “about 0.625 μg/ml”. The “elimination of parasites in spleen” value in data set [4] (BALB/c female mice, 31.6 mg/kg intraperitoneally daily for 14 consecutive days in DMSO, from two weeks post infection, P=0.05) was found to be 82%. Further, the “elimination of parasites in the liver” value in data set [4] (BALB/c female mice, 31.6 mg/kg intraperitoneally daily for 14 consecutive days in DMSO, P=0.083) came out at 73%. In data set [4] (BALB/c mice, 31.6 mg/kg i.p. 14 days, Mann-Whitney test), the “impact on liver and spleen weight” value was “no impact”. Moreover, the signs of toxicity entry in data set [4] (BALB/c mice, treatment period of 14 days) is recorded as “No sign of toxicity”. Further, the IC50 result in data set [5] is on record as “about 17.42 μg/ml”.
